This assay has as its target T1, recombinant T. circumcincta DPY-31 (Tc rDPY-31) (Teladorsagia circumcincta, UniProt A0A0C5PRQ1).
T1 construct: catalytic astacin domain only (684 bp codon-optimised synthetic gene), His-tagged, pET-28a(+) NdeI/XhoI, E. coli BL21 (DE3), Ni-NTA, 23 kDa; full-length precursor 614 residues
T1 sequence (A0A0C5PRQ1 151-378 limits assumed): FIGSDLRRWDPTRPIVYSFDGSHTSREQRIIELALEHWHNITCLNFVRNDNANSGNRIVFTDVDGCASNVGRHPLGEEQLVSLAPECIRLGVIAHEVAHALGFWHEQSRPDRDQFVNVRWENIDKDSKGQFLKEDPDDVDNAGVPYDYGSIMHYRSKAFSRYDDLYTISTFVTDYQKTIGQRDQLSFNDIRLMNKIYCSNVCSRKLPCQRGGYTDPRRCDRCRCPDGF
The assay can be described thus: chromogenic protease assay, Suc-Ala-Ala-Ala-pNA, […] nm. The class given is biochemical. Particulars: read-out: Effective concentration against T. circumcincta rDPY-31 ^d.

Turning to `CCCCC[C@H](CC(=O)NO)C(=O)N[C@H](C(=O)N1CCC[C@H]1CO)C(C)C` [Actinonin], the IC50 stood at 50 µM.

The record behind these values is publication PMC4406453, “A highly conserved, inhibitable astacin metalloprotease from Teladorsagia circumcincta is required for cuticle formation and nematode development^” (International Journal for Parasitology, 2015).
